Assay results taken from ChEMBL document CHEMBL1135518 (J Med Chem, 2002).

Tests used:
D(2) dopamine receptor = D(2) dopamine receptor (Rattus norvegicus, UniProt P61169); test: The binding affinity at the Dopamine receptor D2 determined using [3H]spiperone
[1] = target: 5-hydroxytryptamine receptor 2A (Rattus norvegicus, UniProt P14842); test: The binding affinity at 5-hydroxytryptamine 2A receptor was determined using [3H]ketanserin
D(4) dopamine receptor = target: T1, D(4) dopamine receptor (Homo sapiens, UniProt P21917); test: The binding affinity at the Dopamine receptor D4 determined using [3H]YM-09151-2
T1 sequence (P21917 whole entry): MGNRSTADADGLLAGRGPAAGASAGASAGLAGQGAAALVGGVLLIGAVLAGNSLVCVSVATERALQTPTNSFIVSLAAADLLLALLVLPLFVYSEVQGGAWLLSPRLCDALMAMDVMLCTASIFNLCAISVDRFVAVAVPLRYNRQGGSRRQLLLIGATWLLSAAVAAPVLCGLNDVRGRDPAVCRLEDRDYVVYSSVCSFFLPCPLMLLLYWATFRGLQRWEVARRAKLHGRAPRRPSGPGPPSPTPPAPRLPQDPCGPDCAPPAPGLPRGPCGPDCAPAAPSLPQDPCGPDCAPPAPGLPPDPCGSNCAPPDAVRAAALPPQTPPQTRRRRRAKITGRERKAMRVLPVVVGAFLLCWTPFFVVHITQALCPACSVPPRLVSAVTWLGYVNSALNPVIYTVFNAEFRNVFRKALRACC

D(3) dopamine receptor = D(3) dopamine receptor (Homo sapiens, UniProt P35462); test: The binding affinity at the Dopamine receptor D3 determined using [3H]spiperone
Sequence of D(3) dopamine receptor (P35462 whole entry): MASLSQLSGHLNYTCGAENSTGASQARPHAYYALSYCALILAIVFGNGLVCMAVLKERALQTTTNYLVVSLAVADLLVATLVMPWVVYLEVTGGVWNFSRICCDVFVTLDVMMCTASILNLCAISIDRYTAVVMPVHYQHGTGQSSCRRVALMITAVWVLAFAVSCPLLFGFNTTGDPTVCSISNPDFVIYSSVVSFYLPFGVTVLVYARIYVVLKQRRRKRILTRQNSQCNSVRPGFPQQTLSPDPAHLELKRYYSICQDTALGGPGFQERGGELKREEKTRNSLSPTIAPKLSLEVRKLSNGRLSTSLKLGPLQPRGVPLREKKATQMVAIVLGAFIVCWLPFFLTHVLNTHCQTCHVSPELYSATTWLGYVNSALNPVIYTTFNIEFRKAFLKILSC

[2] = target: Sodium-dependent serotonin transporter (Rattus norvegicus, UniProt P31652); test: The binding affinity at the 5-HT reuptake sites determined using competition binding assay
Sequence of Sodium-dependent serotonin transporter (P31652 whole entry): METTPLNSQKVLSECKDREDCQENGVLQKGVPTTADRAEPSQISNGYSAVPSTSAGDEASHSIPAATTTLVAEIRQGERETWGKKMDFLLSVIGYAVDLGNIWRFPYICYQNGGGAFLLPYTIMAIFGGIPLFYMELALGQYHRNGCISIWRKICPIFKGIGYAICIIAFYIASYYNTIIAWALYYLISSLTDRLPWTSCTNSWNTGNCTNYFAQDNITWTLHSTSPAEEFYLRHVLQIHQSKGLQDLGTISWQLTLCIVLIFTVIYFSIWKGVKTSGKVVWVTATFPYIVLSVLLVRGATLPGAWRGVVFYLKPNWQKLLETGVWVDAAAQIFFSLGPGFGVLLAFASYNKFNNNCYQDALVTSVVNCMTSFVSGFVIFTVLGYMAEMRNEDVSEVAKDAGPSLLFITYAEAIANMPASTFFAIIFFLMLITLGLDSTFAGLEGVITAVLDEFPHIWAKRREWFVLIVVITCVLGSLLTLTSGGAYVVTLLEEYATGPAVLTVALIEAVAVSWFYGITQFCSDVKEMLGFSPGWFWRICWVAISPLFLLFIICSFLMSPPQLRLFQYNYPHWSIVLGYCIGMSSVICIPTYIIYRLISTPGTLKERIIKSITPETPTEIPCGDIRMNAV

[3] = target: T2, 5-hydroxytryptamine receptor 1A (Homo sapiens, UniProt P08908); test: The binding affinity at the 5-hydroxytryptamine 1A receptor determined using [3H]5-CT
T2 sequence (P08908 whole entry): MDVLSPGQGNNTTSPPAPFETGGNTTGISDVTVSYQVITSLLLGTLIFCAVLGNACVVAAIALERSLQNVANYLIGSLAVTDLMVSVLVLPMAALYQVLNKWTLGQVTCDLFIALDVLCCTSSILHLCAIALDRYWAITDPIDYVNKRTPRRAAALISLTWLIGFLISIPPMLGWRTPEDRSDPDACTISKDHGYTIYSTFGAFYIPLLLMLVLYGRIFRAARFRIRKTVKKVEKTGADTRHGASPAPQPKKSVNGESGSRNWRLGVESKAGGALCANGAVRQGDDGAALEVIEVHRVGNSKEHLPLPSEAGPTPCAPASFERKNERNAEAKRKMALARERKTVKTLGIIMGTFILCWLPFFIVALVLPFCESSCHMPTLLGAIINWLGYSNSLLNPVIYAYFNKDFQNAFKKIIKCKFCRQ

[4] = target: T3, Serotonin 3 (5-HT3) receptor (Rattus norvegicus, UniProt P35563+Q9JJ16); test: The binding affinity at 5-hydroxytryptamine 3 receptor was determined using [3H]LY-278584; assay type: protein-complex assay
T3 sequence (P35563 whole entry): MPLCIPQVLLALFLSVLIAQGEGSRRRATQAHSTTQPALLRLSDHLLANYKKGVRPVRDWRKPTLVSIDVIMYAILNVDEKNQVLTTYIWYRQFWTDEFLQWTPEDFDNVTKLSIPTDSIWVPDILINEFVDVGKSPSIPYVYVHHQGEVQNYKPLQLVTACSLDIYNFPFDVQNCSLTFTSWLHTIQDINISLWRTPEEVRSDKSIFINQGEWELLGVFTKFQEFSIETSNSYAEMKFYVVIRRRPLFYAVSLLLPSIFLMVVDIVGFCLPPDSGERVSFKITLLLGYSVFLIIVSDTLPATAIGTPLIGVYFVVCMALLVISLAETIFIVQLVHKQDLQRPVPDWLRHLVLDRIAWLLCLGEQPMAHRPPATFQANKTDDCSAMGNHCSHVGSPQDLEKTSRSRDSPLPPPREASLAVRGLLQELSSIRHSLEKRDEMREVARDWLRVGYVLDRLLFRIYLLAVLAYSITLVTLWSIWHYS
T3 sequence (Q9JJ16 whole entry): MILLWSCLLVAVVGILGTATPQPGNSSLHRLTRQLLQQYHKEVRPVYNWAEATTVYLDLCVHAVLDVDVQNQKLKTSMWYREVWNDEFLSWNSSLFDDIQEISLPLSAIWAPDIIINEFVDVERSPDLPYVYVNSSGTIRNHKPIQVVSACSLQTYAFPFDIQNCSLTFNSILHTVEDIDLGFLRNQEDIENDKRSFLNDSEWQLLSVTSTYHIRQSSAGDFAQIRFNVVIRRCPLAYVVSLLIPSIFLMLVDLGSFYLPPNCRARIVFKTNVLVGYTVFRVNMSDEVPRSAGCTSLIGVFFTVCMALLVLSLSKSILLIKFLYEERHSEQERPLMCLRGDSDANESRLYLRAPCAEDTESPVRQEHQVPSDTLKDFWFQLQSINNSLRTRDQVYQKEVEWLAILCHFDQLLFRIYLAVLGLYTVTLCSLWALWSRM

[5] = target: T4, 5-hydroxytryptamine receptor 2C (Rattus norvegicus, UniProt P08909); test: The binding affinity at 5-hydroxytryptamine 2C receptor was determined using [3H]mesulergine
T4 sequence (P08909 whole entry): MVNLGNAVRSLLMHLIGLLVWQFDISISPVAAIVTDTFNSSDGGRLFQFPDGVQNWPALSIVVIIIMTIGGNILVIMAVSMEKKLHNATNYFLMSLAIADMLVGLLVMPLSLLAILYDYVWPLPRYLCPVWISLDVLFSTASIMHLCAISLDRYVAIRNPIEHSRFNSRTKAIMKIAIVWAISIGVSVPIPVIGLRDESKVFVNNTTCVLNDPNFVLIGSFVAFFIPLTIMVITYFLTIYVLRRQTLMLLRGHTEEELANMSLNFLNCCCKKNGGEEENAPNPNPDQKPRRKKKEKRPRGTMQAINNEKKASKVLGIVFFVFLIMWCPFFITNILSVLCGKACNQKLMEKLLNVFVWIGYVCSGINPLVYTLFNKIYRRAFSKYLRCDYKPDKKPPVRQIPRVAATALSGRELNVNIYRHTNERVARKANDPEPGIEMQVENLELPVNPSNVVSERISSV

Sequence of 5-hydroxytryptamine receptor 2A (P14842 whole entry): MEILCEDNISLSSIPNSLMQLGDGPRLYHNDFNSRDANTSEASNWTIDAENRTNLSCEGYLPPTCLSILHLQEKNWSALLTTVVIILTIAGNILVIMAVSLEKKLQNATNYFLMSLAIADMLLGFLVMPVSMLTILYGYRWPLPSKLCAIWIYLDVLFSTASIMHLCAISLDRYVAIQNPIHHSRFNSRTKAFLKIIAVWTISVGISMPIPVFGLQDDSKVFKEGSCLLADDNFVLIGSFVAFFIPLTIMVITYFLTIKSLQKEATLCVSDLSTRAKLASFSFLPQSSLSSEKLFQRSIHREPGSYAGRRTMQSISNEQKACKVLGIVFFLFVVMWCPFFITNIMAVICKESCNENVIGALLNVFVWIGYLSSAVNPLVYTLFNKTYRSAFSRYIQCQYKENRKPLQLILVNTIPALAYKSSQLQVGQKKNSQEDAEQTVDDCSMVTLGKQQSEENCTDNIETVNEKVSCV
Sequence of D(2) dopamine receptor (P61169 whole entry): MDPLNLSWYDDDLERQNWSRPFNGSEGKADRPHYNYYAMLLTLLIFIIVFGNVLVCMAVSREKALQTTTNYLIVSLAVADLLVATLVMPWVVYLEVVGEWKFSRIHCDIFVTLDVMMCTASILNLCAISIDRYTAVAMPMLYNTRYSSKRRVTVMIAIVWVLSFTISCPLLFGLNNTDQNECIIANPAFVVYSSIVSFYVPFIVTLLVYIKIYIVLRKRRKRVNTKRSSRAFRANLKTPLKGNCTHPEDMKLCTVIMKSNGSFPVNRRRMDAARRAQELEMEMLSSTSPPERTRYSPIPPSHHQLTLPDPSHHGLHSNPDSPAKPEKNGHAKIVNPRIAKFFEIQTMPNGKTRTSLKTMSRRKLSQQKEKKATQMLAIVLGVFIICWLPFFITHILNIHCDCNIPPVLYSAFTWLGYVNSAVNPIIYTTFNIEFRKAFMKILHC

Compound	Ki (D(2) dopamine receptor)	IC50 [1]	Ki (D(4) dopamine receptor)	Ki (D(3) dopamine receptor)	IC50 [2]	Ki [3]	Ki [4]	Ki [5]
COc1cccc2c1N1CCN(C)C[C@@H]1c1ccccc1C2	0.46 µM	0.00055 µM	0.16 µM	3.57 µM	1.65 µM	0.8 µM	> 5 µM	0.00016 µM
COc1cccc2c1N1CCN(C)C[C@H]1c1ccccc1C2	0.02 µM	0.00075 µM	0.047 µM	0.1 µM	> 10 µM	0.255 µM	1.65 µM	0.00039 µM
COc1cccc2c1N1CCN(C)CC1c1ccccc1C2 (racemic)	0.028 µM	0.0007 µM	0.092 µM	0.26 µM	2.9 µM	0.345 µM	2.9 µM	0.00021 µM
